What was measured:
[1] = tested on: IL-2, IFN-γ, TNF-α, IL-10 and iNOS mRNA; assay: Quantitative real-time PCR of cytokine and pro-inflammatory mediator mRNA in splenocytes; format: in vivo, rat; settings: splenocytes of Lewis rats treated with MTA; relative to 18S rRNA (FIG. 5)
Method: Spleen, liver and blood samples were also obtained from each animal. The spleens and the livers were quickly frozen in liquid nitrogen and kept in fragments at −80° C. in order to be able to conduct the studies with RT-PCR (reverse transcription and polymerase chain reaction). The blood was centrifuged at 800 rpm for 10 minutes in order to obtain the serum, which was kept at −80° C.
The spleen and liver tissue segments were homogenised in RNA lysis buffer with 2% β-mercaptoethanol using a manual homogeniser. The total RNA was extracted using the Rneasy Mini Kit (Quiagen), following the manufacturer's instructions. During RNA purification, the DNA was eliminated by treatment with DNase. The RNA concentration and purity was determined by measuring the absorbance at 260 nm and 280 nm with a spectrophotometer (Eppendorf). Reverse transcription of the total RNA was performed using the High Capacity cDNA Archive Kit (Applied Biosystems). […]
For the quantitative PCR, the TaqMan Universal Master Mix (Applied Biosystems) was used. […]
The IL-2, IFN-γ, TNF-α, IL-10 and iNOS mRNA expression levels were quantified in relation to the rRNA 18S constitutive gene.
It was assessed whether MTA had the capacity to modify the expression of cytokines and other pro-inflammatory mediators. The IL-2, IFN-γ, TNF-α, IL-10 and iNOS gene expression was analysed by means of quantitative real-time PCR (RT-PCR). […]

[2] = tested on: acute EAE in Lewis rats immunised with MBP; assay: Acute EAE induction and clinical score in Lewis rats immunised with MBP; format: in vivo, rat
[3] = tested on: splenocytes (MBP-specific T-lymphocyte response); assay: Lymphocyte proliferation assay (MBP-induced, splenocytes of treated rats); format: cell-based, rat; settings: splenocytes of Lewis rats immunised with MBP, day 16 after immunisation, treated in vivo with MTA; MBP 10 μg/ml
Method: The splenocytes were purified by means of Ficoll Hypaque density centrifugation starting from the rats with EAE and non-immunised rats. The lymphocite proliferation assay was conducted in the same manner as previously described [Villoslada, P., et al., J. Exp Med, 2000. 191 (10):1799-806].
Briefly, the splenocytes were placed in culture at a concentration of 2×10^6/ml in RPMI 1640 medium supplemented with 10% fetal bovine serum and penicillin/streptomycin, in the presence or absence of phytohemagglutinin (PHA, 5 μg/ml), MBP (10 μg/ml), MTA (100 μM) and DMSO. The cultures were incubated for 5 days in 96-well round-base plates (0.2 ml/well) at 37° C. The wells were struck with 0.5 μCi [^3H]TdR for 18 hours. The reading was performed using a liquid scintillation counter. The results were expressed as the mean stimulation index of the triplicate determinations.
In order to determine whether treatment with MTA modified the peripheral immune system's response to the antigen used in the immunisation, the MBP-induced proliferation responses were measured in splenocytes of animals treated with MTA and placebo (in Lewis rats). […] Therefore, it is observed that MTA inhibits the MBP-specific lymphocyte activation, which points to its immunomodulatory effect.

[4] = tested on: inflammatory infiltrates in brain and spinal cord of Lewis rats immunised with MBP; assay: Histopathology and immunohistochemistry of brain and spinal cord; format: in vivo, rat
Method: The two Lewis rat groups were anaesthetised and injected by intracardiac route with 4% paraformaldehyde in 0.1 M phosphate buffer (pH 7.6) on day 16 of the disease. The brains and the cervical, thoracic and lumbar spinal cord segments were extracted and fixated for the entire night at 4° C. After fixation, the tissues were soaked in paraffin for histopathology and immunohistochemistry.
Histological evaluation of the brain and spinal cord sections included in paraffin was conducted. The sections were stained with hematoxylin-eosin (HE) and Luxol fast-blue in order to be able to assess the tissues' inflammation and demyelination. 24-30 sagital sections were examined for each rat. The blind semi-quantitative histological evaluation of inflammation and demyelination was conducted as previously described [Villoslada, P., et al., J. Exp Med, 2000. 191 (10):1799-806].
The immunohistochemical procedures were conducted on […] brain and medulla sections included in paraffin. The endogenous peroxidase activity was deactivated by means of 0.3% H2O2 in methanol for 20 min.
The sections were incubated for 30 min in PBS with 0.5% Tween® 20 and 10% goat or horse serum (Vector Laboratorios) and for 2 hours in PBS with 0.5% Tween® 20 and the primary antibodies in the following dilutions: rabbit antiglial fibrillary acid polyclonal anti-protein antibody (GFAP), 1:1,000 (Dakocytomation); mouse beta-amyloid precursor anti-protein antibody (APP), 1:100 (Zymed Laboratorios); mouse […] (OX-6), 1:200 (Serotec); rat anti-CD8 antibody, 1:250 (Serotec); type II anti-iNOS antibody, 1:250 (Serotec); rat anti-CD68 antibody (ED1), 1:200 (Serotec) and rat anti-CD43 antibody (W3/13), 1:50 (Serotec). Subsequently, the sections were washed with PBS and incubated for 45 min at room temperature with the appropriate biotinylated secondary IgG antibody (1:100 in PBS; Vector Laboratorios), followed by several washes in PBS/Tween® and a 45-min incubation at room temperature with the avidin-biotin peroxidase complex (ABC, Vector Laboratorios).
The immunoreaction specificity was determined by incubating the sections without the primary antibody. The images were obtained using an optic microscope.
The neuropathological evaluation confirmed the observed clinical protection. […] Inflammatory lesions were found in both the white and grey matter of the cervical, thoracic and lumbar spinal cord, and the brain. […] There were significant differences between the placebo animals and those treated with MTA in terms of both the severity and the central nervous system (CNS) regions affected. Treatment with MTA inhibits the development of inflammatory EAE in Lewis rats immunised with MBP.

[5] = tested on: chronic-recurrent EAE (CR-EAE) in Dark Agouti (DA) rats immunised with MOG; assay: Chronic-recurrent EAE (CR-EAE) clinical score and survival in DA rats immunised with rMOG; format: in vivo, rat
[6] = MTA 4.3 mg/animal i.p. daily from immunisation
[7] = immunohistochemical staining, MTA versus placebo group
[8] = 100 μM MTA i.p. daily from day 15 after immunisation

## CSCC1OC(n2cnc3c(N)ncnc32)C(O)C1O (stereo not drawn) [MTA, 5′-methylthioadenosine]
[1]
  mRNA expression of cytokines (IL-2, IFN-γ, TNF-α, IL-10, iNOS) versus placebo group: lower
[2]; [6]
  EAE Incidence (%): (28.57%)
  EAE Incidence (rats with EAE / number of rats): 4/14
[2]; MTA i.p. daily from immunisation
  Cumulative EAE Score: 2 ± 0.07
[2]; MTA i.p. daily from immunisation, treated animals that developed symptoms
  Onset of EAE: 15 ± 1.2 days
[3]
  stimulation index (MBP-specific proliferation response): 1.18±0.4
[4]; [7]
  number of positive ED1 and W3/13 cells in inflammatory infiltrates: higher in the placebo group
  proportions of positive OX-6 cells in inflammatory infiltrates: same proportions
[4]; immunohistochemical staining, both groups
  stains for APP and iNOS: very low detection levels
[4]; spinal cord and brain, Lewis rats immunised with MBP (FIG. 6)
  number and size of the inflammatory infiltrates versus placebo: lower
[5]; [8]
  Cumulative EAE Score: 23 ± 20
  Incidence 2nd outbreak: 10/10
  Onset (days) 2nd outbreak: 26 ± 6 days
[5]; 100 μM MTA i.p. daily from day 15 after immunisation, scale 0-5
  Max. EAE Score: 1.8 ± 1.5
[5]; survival curves to score 3.5 and to exitus (FIG. 3)
  survival rate versus placebo group: significantly higher

— patent publication US7820637B2, “Use of 5′-methylthioadenosine (MTA) in the prevention and/or treatment of autoimmune diseases and/or transplant rejection” (Proyecto de Biomedicina Cima, S.L., priority 2005, dated 2010)
